The target of one assay is TBK1 (Homo sapiens (Human), UniProt Q9UHD2). Nature of the assay: TBK1 TR-FRET enzymatic assay.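 Further: phosphorylation of a biotinylated Ser/Thr peptide by purified full-length recombinant TBK1, read by TR-FRET after 240 min at 25 °C, IC50 is the geometric mean of at least four runs.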 Background: TR-FRET usually uses a lanthanide donor and a delayed reading to cut background.
In a further assay the target is IKKε (Homo sapiens (Human), UniProt Q14164). The experiment in a line: IKKε TR-FRET enzymatic assay. The class given is biochemical. Conditions: read-out: IKKe IC50.
Chain of IKKε (Q14164 whole entry): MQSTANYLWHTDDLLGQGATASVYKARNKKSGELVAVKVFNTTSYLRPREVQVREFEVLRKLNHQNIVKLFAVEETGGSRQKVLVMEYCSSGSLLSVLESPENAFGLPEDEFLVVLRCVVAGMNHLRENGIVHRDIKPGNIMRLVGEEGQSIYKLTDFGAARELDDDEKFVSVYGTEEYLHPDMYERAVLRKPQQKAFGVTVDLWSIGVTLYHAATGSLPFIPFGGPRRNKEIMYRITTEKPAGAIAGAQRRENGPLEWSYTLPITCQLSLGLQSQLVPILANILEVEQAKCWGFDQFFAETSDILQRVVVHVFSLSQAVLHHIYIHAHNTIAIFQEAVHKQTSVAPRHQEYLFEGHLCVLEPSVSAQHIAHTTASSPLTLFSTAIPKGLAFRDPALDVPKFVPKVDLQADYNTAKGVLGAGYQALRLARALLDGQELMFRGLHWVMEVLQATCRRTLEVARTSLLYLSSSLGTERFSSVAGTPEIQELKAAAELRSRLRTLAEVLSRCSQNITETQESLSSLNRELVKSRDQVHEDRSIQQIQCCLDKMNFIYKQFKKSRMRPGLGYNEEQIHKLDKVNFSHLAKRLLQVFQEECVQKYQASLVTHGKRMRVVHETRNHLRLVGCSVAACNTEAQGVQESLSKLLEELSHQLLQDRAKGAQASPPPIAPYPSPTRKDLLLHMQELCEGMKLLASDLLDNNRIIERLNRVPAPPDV
In another assay the target is hJAK2 (Homo sapiens (Human), UniProt O60674). The experiment in a line: hJAK2 LANCE TR-FRET enzymatic assay. It is filed as biochemical. Conditions: read-out: JAK2 IC50.
Chain of hJAK2 (O60674 whole entry): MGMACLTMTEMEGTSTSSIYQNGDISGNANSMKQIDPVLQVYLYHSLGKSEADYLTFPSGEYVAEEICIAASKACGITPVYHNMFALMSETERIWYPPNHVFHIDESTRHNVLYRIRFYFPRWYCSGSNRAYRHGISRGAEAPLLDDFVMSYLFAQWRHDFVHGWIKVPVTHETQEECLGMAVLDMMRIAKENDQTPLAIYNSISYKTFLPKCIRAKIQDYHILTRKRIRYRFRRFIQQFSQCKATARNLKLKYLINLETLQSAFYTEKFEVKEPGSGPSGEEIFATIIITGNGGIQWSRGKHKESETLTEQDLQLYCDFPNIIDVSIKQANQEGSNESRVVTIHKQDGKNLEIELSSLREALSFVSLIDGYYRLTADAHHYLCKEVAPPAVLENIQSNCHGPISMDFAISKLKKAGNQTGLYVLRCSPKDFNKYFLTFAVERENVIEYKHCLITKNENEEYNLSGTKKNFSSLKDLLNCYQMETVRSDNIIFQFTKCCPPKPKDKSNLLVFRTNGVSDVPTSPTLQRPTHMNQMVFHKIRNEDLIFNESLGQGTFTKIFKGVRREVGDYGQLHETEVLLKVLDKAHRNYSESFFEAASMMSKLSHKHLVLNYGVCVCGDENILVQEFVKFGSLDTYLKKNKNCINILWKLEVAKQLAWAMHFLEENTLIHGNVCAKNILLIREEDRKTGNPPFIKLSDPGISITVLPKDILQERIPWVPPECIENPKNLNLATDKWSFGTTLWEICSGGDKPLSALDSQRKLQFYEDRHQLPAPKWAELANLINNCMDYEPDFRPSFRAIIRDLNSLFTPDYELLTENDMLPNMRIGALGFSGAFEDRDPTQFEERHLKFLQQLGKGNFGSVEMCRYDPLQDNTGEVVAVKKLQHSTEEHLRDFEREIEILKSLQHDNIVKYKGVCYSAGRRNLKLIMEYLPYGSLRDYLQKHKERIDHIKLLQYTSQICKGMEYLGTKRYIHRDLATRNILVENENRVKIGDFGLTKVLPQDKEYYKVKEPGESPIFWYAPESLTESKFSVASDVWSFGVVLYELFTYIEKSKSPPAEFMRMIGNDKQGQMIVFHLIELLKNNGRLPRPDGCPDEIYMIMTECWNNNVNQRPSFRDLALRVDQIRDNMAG

This passage reports IC50 results from US10040781B2, “Tank-binding kinase inhibitor compounds” (Gilead Sciences, Inc., priority 2014, dated 2018).

Chain of TBK1 (Q9UHD2 whole entry): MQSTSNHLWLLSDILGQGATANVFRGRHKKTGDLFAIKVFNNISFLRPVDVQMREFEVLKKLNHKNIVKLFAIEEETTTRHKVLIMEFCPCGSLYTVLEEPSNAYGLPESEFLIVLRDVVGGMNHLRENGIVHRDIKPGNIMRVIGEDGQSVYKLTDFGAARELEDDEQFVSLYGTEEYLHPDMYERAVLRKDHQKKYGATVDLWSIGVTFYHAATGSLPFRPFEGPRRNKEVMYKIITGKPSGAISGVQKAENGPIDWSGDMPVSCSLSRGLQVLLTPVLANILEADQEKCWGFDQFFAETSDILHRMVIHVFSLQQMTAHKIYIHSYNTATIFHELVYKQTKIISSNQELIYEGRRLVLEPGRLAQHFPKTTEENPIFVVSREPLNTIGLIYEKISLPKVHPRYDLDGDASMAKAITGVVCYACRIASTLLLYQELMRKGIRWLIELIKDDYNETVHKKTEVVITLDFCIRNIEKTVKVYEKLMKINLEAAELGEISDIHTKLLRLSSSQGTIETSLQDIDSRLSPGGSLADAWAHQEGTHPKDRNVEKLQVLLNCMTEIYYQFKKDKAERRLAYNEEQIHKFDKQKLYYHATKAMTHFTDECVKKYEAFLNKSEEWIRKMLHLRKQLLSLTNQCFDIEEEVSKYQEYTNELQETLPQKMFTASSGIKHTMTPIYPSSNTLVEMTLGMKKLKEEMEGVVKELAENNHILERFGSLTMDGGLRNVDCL

Take `N#Cc1cc(-c2ncnc(Nc3ccc(N4CCN(C5COC5)CC4)cc3)n2)ccc1O[C@H]1CCN(C(=O)c2cn[nH]c2)C[C@H]1F` [Example 356, 2-(((3R,4S)-3-fluoro-1-(1H-pyrazole-4-carbonyl)piperidin-4-yl)oxy)-5-(4-((4-(4-(oxetan-3-yl)piperazin-1-yl)phenyl)amino)-1,3,5-triazin-2-yl)benzonitrile]: the IC50 at TBK1 stood at 2 nM; on IKKε, 3 nM; on hJAK2 it was 550 nM.

For the molecule `C[C@H](O)C(=O)N1CC[C@H](Oc2ccc(-c3ncnc(Nc4ccc(N5CCC[C@@H](O)C5)cc4)n3)cc2C#N)[C@H](F)C1` [Example 357, 2-(((3R,4S)-3-fluoro-1-((S)-2-hydroxypropanoyl)piperidin-4-yl)oxy)-5-(4-((4-((R)-3-hydroxypiperidin-1-yl)phenyl)amino)-1,3,5-triazin-2-yl)benzonitrile], the IC50 against TBK1 turned out to be 4 nM; on IKKε it was 2 nM; on hJAK2, 511 nM.

In the case of `C[C@H](O)C(=O)N1CC[C@H](Oc2ccc(-c3ncnc(Nc4cnc(N5CCN(C6COC6)CC5)c(F)c4)n3)cc2C#N)[C@H](F)C1` [Example 358, 2-(((3R,4S)-3-fluoro-1-((S)-2-hydroxypropanoyl)piperidin-4-yl)oxy)-5-(4-((5-fluoro-6-(4-(oxetan-3-yl)piperazin-1-yl)pyridin-3-yl)amino)-1,3,5-triazin-2-yl)benzonitrile], the results for the IC50 at TBK1, on IKKε and at hJAK2 were 6 nM, 11 nM and ≥ 1000 nM, respectively.

For `C[C@H](O)C(=O)N1CCCC(Oc2ccc(-c3ncnc(Nc4ccc(N5CCN(C6COC6)CC5)cc4)n3)cc2C#N)CC1` (stereo partly drawn) [Example 359, 2-((1-((S)-2-hydroxypropanoyl)azepan-4-yl)oxy)-5-(4-((4-(4-(oxetan-3-yl)piperazin-1-yl)phenyl)amino)-1,3,5-triazin-2-yl)benzonitrile], the results for the IC50 on TBK1, at IKKε and at hJAK2 were 17 nM, 37 nM and 995 nM, respectively.

Take `CCn1cc(Nc2ncnc(-c3ccc(O[C@H]4CCN(C(=O)CO)C[C@H]4F)c(C#N)c3)n2)cn1` [Example 360, 5-(4-((1-ethyl-1H-pyrazol-4-yl)amino)-1,3,5-triazin-2-yl)-2-(((3R,4S)-3-fluoro-1-(2-hydroxyacetyl)piperidin-4-yl)oxy)benzonitrile]: the figures for the IC50 against TBK1, on IKKε and at hJAK2 were 3 nM, 2 nM and 185 nM, respectively.

Turning to `N#Cc1cc(-c2ncnc(Nc3cnn(CC(F)F)c3)n2)ccc1O[C@H]1CCN(C(=O)CO)C[C@H]1F` [Example 361, 5-(4-((1-(2,2-difluoroethyl)-1H-pyrazol-4-yl)amino)-1,3,5-triazin-2-yl)-2-(((3R,4S)-3-fluoro-1-(2-hydroxyacetyl)piperidin-4-yl)oxy)benzonitrile], the IC50 against TBK1 was 2 nM; at IKKε, 1 nM; at hJAK2, 317 nM.

Turning to `C[C@H](O)C(=O)N1CC[C@H](Oc2ccc(-c3ncnc(Nc4ccc(N5CCCOCC5)cc4)n3)cc2C#N)[C@H](F)C1` [Example 363, 5-(4-((4-(1,4-oxazepan-4-yl)phenyl)amino)-1,3,5-triazin-2-yl)-2-(((3R,4S)-3-fluoro-1-((S)-2-hydroxypropanoyl)piperidin-4-yl)oxy)benzonitrile], the IC50 on TBK1 stood at 3 nM; on IKKε it was 1 nM; on hJAK2, 665 nM.

As for `C[C@H](O)C(=O)N1CC[C@H](Oc2ccc(-c3ncnc(Nc4ccc(N5CC6(COC6)C5)cc4)n3)cc2C#N)[C@H](F)C1` [Example 364, 5-(4-((4-(2-oxa-6-azaspiro[3.3]heptan-6-yl)phenyl)amino)-1,3,5-triazin-2-yl)-2-(((3R,4S)-3-fluoro-1-((S)-2-hydroxypropanoyl)piperidin-4-yl)oxy)benzonitrile], the IC50 was determined as 5 nM against TBK1, 4 nM at IKKε and 634 nM on hJAK2.

Consider `C[C@H](O)C(=O)N1CC[C@H](Oc2ccc(-c3ncnc(Nc4ccc(N5CCC6(CC5)COC6)cc4)n3)cc2C#N)[C@H](F)C1` [Example 365, 5-(4-((4-(2-oxa-7-azaspiro[3.5]nonan-7-yl)phenyl)amino)-1,3,5-triazin-2-yl)-2-(((3R,4S)-3-fluoro-1-((S)-2-hydroxypropanoyl)piperidin-4-yl)oxy)benzonitrile], for which the values for the IC50 on TBK1, on IKKε and at hJAK2 were 4 nM, 2 nM and 474 nM, respectively.

As for `C[C@H](O)C(=O)N1CC[C@H](Oc2ccc(-c3ncnc(Nc4ccc(N5CCN(C6COC6)CC5)c(F)c4)n3)cc2C#N)[C@H](F)C1` [Example 367, 2-(((3R,4S)-3-fluoro-1-((S)-2-hydroxypropanoyl)piperidin-4-yl)oxy)-5-(4-((3-fluoro-4-(4-(oxetan-3-yl)piperazin-1-yl)phenyl)amino)-1,3,5-triazin-2-yl)benzonitrile], the values for the IC50 against TBK1, on IKKε and on hJAK2 were 3 nM, 2 nM and ≥ 1000 nM, respectively.

As for `N#Cc1cc(-c2ncnc(Nc3ccc(N4CCN(C5COC5)CC4)c(C(F)(F)F)c3)n2)ccc1O[C@H]1CCN(C(=O)CO)C[C@H]1F` [Example 368, 2-(((3R,4S)-3-fluoro-1-(2-hydroxyacetyl)piperidin-4-yl)oxy)-5-(4-((4-(4-(oxetan-3-yl)piperazin-1-yl)-3-(trifluoromethyl)phenyl)amino)-1,3,5-triazin-2-yl)benzonitrile], the IC50 against TBK1 amounted to 3 nM; on IKKε, 2 nM; on hJAK2, 225 nM.

As for `C[C@H](O)C(=O)N1CC[C@H](Oc2ccc(-c3ncnc(Nc4ccc(N5CCN(C6COC6)CC5)c(C(F)(F)F)c4)n3)cc2C#N)[C@H](F)C1` [Example 370, 2-(((3R,4S)-3-fluoro-1-((S)-2-hydroxypropanoyl)piperidin-4-yl)oxy)-5-(4-((4-(4-(oxetan-3-yl)piperazin-1-yl)-3-(trifluoromethyl)phenyl)amino)-1,3,5-triazin-2-yl)benzonitrile], the values for the IC50 against TBK1, on IKKε and on hJAK2 were 5 nM, 8 nM and 875 nM, respectively.

Consider `C[C@H](O)C(=O)N1CC[C@H](Oc2ccc(-c3ncnc(Nc4ccc(N5CCN(C6COC6)CC5)c(C(F)F)c4)n3)cc2C#N)[C@H](F)C1` [Example 371, 5-(4-((3-(difluoromethyl)-4-(4-(oxetan-3-yl)piperazin-1-yl)phenyl)amino)-1,3,5-triazin-2-yl)-2-(((3R,4S)-3-fluoro-1-((S)-2-hydroxypropanoyl)piperidin-4-yl)oxy)benzonitrile], for which the 50% inhibitory concentration (IC50) at TBK1 was 2 nM; on IKKε it was 1 nM; at hJAK2 it was 989 nM.

For `N#Cc1cc(-c2ncnc(Nc3ccc(N4CCN(C5COC5)CC4)c(F)c3)n2)ccc1O[C@H]1CCN(C(=O)[C@@H]2CCC(=O)N2)C[C@H]1F` [Example 372, 2-(((3R,4S)-3-fluoro-1-((S)-5-oxopyrrolidine-2-carbonyl)piperidin-4-yl)oxy)-5-(4-((3-fluoro-4-(4-(oxetan-3-yl)piperazin-1-yl)phenyl)amino)-1,3,5-triazin-2-yl)benzonitrile], the figures for the IC50 at TBK1, at IKKε and on hJAK2 were 4 nM, 5 nM and 305 nM, respectively.

Consider `N#Cc1cc(-c2ncnc(Nc3ccc(N4CCN(C5COC5)CC4)c(F)c3)n2)ccc1O[C@H]1CCN(C(=O)c2cnn[nH]2)C[C@H]1F` [Example 373, 2-(((3R,4S)-3-fluoro-1-(1H-1,2,3-triazole-5-carbonyl)piperidin-4-yl)oxy)-5-(4-((3-fluoro-4-(4-(oxetan-3-yl)piperazin-1-yl)phenyl)amino)-1,3,5-triazin-2-yl)benzonitrile], for which the IC50 at TBK1 was found to be 2 nM; on IKKε, 1 nM; on hJAK2 it was 146 nM.

Take `N#Cc1cc(-c2ncnc(Nc3ccc(N4CCN(C5COC5)CC4)cc3F)n2)ccc1O[C@H]1CCN(C(=O)[C@@H]2CCC(=O)N2)C[C@H]1F` [Example 374, 2-(((3R,4S)-3-fluoro-1-((S)-5-oxopyrrolidine-2-carbonyl)piperidin-4-yl)oxy)-5-(4-((2-fluoro-4-(4-(oxetan-3-yl)piperazin-1-yl)phenyl)amino)-1,3,5-triazin-2-yl)benzonitrile]: the IC50 at TBK1 is 1000 nM; on IKKε, ≥ 1000 nM; at hJAK2 it was ≥ 1000 nM.

With `C[C@H](O)C(=O)N1CC[C@H](Oc2ccc(-c3ncnc(Nc4ccc(N5CCN(C6COC6)CC5)cc4F)n3)cc2C#N)[C@H](F)C1` [Example 375, 2-(((3R,4S)-3-fluoro-1-((S)-2-hydroxypropanoyl)piperidin-4-yl)oxy)-5-(4-((2-fluoro-4-(4-(oxetan-3-yl)piperazin-1-yl)phenyl)amino)-1,3,5-triazin-2-yl)benzonitrile], the results for the IC50 at TBK1, on IKKε and on hJAK2 were 1000 nM, ≥ 1000 nM and ≥ 1000 nM, respectively.

For `N#Cc1cc(-c2ncnc(Nc3ccc(N4CCN(C5COC5)CC4)cc3)n2)ccc1O[C@H]1CCN(C(=O)c2cn(CCO)nn2)C[C@H]1F` [Example 376], the IC50 on TBK1 turned out to be 5 nM; on IKKε, 3 nM; at hJAK2, 127 nM.

In the case of `C[C@H](O)C(=O)N1CC[C@H](Oc2ccc(-c3ncnc(Nc4ccc(N5CCN(C6COC6)CC5)nc4)n3)cc2C#N)[C@H](F)C1` [Example 379, 2-(((3R,4S)-3-fluoro-1-((S)-2-hydroxypropanoyl)piperidin-4-yl)oxy)-5-(4-((6-(4-(oxetan-3-yl)piperazin-1-yl)pyridin-3-yl)amino)-1,3,5-triazin-2-yl)benzonitrile], the values for the IC50 against TBK1, at IKKε and at hJAK2 were 5 nM, 3 nM and ≥ 1000 nM, respectively.

As for `CCOC(=O)c1cccc(Nc2ncnc(-c3ccc(O[C@H]4CCN(C(=O)[C@H](C)O)C[C@H]4F)c(C#N)c3)n2)c1` [Example 380, Ethyl 3-((4-(3-cyano-4-(((3R,4S)-3-fluoro-1-((S)-2-hydroxypropanoyl)piperidin-4-yl)oxy)phenyl)-1,3,5-triazin-2-yl)amino)benzoate], the IC50 against TBK1 was 6 nM; at IKKε, 8 nM; at hJAK2, 891 nM.

Usually IC50 stands for the concentration at which inhibition is half-maximal.
